Reference: ChEMBL document CHEMBL1133860, “Synthesis and biological evaluation of a series of novel N- or O-fluoroalkyl derivatives of tropane: potential positron emission tomography (PET) imaging agents for the dopamine transporter” (Bioorg Med Chem Lett, 2001)

These compounds were tested against Sodium-dependent dopamine transporter (Rattus norvegicus, UniProt P23977) (assay: Ability to displace [3H]- beta-CIT from Dopamine transporter in rat striatal homogenate).
Sequence of Sodium-dependent dopamine transporter (P23977 whole entry): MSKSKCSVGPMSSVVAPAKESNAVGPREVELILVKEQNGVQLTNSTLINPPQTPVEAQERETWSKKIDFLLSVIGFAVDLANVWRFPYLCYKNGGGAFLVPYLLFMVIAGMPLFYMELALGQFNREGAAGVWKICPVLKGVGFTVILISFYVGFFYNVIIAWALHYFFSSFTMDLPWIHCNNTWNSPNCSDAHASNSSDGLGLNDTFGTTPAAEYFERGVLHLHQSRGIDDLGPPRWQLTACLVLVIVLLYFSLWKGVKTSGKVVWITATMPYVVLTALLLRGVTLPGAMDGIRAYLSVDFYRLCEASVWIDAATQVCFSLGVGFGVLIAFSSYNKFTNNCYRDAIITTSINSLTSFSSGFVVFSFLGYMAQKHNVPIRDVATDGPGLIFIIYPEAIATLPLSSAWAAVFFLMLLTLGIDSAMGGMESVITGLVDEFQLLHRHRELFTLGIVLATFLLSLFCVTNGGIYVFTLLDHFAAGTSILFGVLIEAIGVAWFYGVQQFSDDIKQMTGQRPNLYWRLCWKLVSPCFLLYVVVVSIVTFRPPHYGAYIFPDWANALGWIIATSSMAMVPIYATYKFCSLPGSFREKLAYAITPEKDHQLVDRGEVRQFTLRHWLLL

In order of rising Ki:
1. COC(=O)C1C2CCC(CC1c1ccc(I)cc1)N2 (configuration not stated)  0.64 nM
2. CN1C2CCC1C(C(=O)OCCF)C(c1ccc(I)cc1)C2 (configuration not stated)  0.93 nM
3. COC(=O)[C@@H]1C2CC[C@H](C[C@@H]1c1ccc(I)cc1)N2C  1.33 nM
4. CN1C2CCC1C(C(=O)OCCCF)C(c1ccc(I)cc1)C2 (configuration not stated)  1.54 nM
5. COC(=O)C1C(c2ccc(Br)cc2)CC2CCC1N2CCCF (configuration not stated)  3.33 nM
6. Cc1ccc(C2CC3CCC(C2C(=O)OCCCF)N3C)cc1 (configuration not stated)  7.17 nM
7. COC(=O)C1C(c2ccc(I)cc2)CC2CCC1N2CCCF (configuration not stated)  8.29 nM
8. O=C(OCCF)C1C(c2ccc(I)cc2)CC2CCC1N2CCCF (configuration not stated)  8.71 nM
9. COC(=O)C1C(c2ccc(C)cc2)CC2CCC1N2CCF (configuration not stated)  32.1 nM
10. COC(=O)C1C(c2ccc(C)cc2)CC2CCC1N2CCCF (configuration not stated)  37.6 nM

The compounds below were run against Norepinephrine transporter (Rattus norvegicus, UniProt Q9WTR4) (assay: Ability to displace [3H]- nisoxetin from Norepinephrine transporter in rat cerebral cortical homogenate).
Sequence of Norepinephrine transporter (Q9WTR4 whole entry): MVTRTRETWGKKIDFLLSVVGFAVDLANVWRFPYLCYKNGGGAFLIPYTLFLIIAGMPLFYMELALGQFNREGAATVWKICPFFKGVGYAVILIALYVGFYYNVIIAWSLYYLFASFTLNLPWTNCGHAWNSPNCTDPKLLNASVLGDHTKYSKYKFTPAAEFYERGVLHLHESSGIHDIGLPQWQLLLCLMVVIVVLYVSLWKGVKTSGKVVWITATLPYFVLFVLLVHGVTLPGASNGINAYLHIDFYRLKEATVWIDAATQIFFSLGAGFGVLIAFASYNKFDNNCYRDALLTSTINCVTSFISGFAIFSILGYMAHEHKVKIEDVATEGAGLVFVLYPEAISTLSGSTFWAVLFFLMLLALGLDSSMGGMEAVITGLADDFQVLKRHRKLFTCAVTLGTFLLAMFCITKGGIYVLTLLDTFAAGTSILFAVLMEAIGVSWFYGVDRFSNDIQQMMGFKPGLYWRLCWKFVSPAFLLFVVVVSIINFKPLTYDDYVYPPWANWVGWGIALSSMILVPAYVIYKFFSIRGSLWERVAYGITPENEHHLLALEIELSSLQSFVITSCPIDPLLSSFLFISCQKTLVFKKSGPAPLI

In order of falling Ki:
1. COC(=O)C1C(c2ccc(C)cc2)CC2CCC1N2CCCF (configuration not stated)  1210 nM
2. O=C(OCCF)C1C(c2ccc(I)cc2)CC2CCC1N2CCCF (configuration not stated)  723 nM
3. COC(=O)C1C(c2ccc(C)cc2)CC2CCC1N2CCF (configuration not stated)  268 nM
4. Cc1ccc(C2CC3CCC(C2C(=O)OCCCF)N3C)cc1 (configuration not stated)  260 nM
5. COC(=O)C1C(c2ccc(Br)cc2)CC2CCC1N2CCCF (configuration not stated)  196 nM
6. CN1C2CCC1C(C(=O)OCCCF)C(c1ccc(I)cc1)C2 (configuration not stated)  173 nM
7. CN1C2CCC1C(C(=O)OCCF)C(c1ccc(I)cc1)C2 (configuration not stated)  173 nM
8. COC(=O)C1C2CCC(CC1c1ccc(I)cc1)N2 (configuration not stated)  1.85 nM

These compounds were tested against Sodium-dependent serotonin transporter (Rattus norvegicus, UniProt P31652) (assay: Ability to displace [3H]- paroxetine from Serotonin transporter in rat cerebral cortical homogenate).
Sequence of Sodium-dependent serotonin transporter (P31652 whole entry): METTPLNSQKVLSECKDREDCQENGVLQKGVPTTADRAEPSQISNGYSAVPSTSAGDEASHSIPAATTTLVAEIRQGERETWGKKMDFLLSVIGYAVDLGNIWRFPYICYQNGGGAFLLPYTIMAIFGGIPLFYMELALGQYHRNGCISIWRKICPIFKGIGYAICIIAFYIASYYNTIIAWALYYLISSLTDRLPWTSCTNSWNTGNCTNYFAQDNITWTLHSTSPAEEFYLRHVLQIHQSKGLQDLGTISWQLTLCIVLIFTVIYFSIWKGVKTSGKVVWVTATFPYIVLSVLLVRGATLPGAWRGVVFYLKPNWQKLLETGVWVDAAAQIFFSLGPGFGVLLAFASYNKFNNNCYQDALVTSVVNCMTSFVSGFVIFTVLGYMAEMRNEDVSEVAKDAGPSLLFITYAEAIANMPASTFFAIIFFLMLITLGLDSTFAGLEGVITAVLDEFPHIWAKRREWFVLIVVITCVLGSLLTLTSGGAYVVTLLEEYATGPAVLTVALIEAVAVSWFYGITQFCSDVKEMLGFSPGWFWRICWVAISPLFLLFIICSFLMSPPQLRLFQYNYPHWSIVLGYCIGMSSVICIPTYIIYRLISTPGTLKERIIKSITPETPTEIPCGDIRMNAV

In order of rising Ki:
1. COC(=O)C1C2CCC(CC1c1ccc(I)cc1)N2 (configuration not stated)  0.06 nM
2. CN1C2CCC1C(C(=O)OCCCF)C(c1ccc(I)cc1)C2 (configuration not stated)  1.65 nM
3. CN1C2CCC1C(C(=O)OCCF)C(c1ccc(I)cc1)C2 (configuration not stated)  1.65 nM
4. COC(=O)C1C(c2ccc(I)cc2)CC2CCC1N2CCCF (configuration not stated)  1.68 nM
5. O=C(OCCF)C1C(c2ccc(I)cc2)CC2CCC1N2CCCF (configuration not stated)  13.3 nM
6. COC(=O)C1C(c2ccc(Br)cc2)CC2CCC1N2CCCF (configuration not stated)  36.4 nM
7. Cc1ccc(C2CC3CCC(C2C(=O)OCCCF)N3C)cc1 (configuration not stated)  325 nM
8. COC(=O)C1C(c2ccc(C)cc2)CC2CCC1N2CCF (configuration not stated)  375 nM
9. COC(=O)C1C(c2ccc(C)cc2)CC2CCC1N2CCCF (configuration not stated)  1310 nM

The compounds below were run on Monoamine transporters; Norepinephrine & dopamine (assay: Selectivity for DAT determined as ratio of binding affinity for NET to that for DAT).
Type: protein assay

In order of falling Selectivity ratio:
1. CN1C2CCC1C(C(=O)OCCCF)C(c1ccc(I)cc1)C2 (configuration not stated)  112
2. CN1C2CCC1C(C(=O)OCCF)C(c1ccc(I)cc1)C2 (configuration not stated)  112
3. O=C(OCCF)C1C(c2ccc(I)cc2)CC2CCC1N2CCCF (configuration not stated)  83
4. COC(=O)C1C(c2ccc(Br)cc2)CC2CCC1N2CCCF (configuration not stated)  58.9
5. Cc1ccc(C2CC3CCC(C2C(=O)OCCCF)N3C)cc1 (configuration not stated)  36.3
6. COC(=O)C1C(c2ccc(C)cc2)CC2CCC1N2CCCF (configuration not stated)  32.1
7. COC(=O)C1C(c2ccc(C)cc2)CC2CCC1N2CCF (configuration not stated)  8.4
8. COC(=O)C1C(c2ccc(I)cc2)CC2CCC1N2CCCF (configuration not stated)  7.6
9. COC(=O)C1C2CCC(CC1c1ccc(I)cc1)N2 (configuration not stated)  2.9
10. COC(=O)[C@@H]1C2CC[C@H](C[C@@H]1c1ccc(I)cc1)N2C  2.1

These compounds were tested on Monoamine transporters; serotonin & dopamine (assay: Selectivity for DAT determined as ratio of binding affinity for SERT to that for DAT).
Type: protein assay

In order of falling Selectivity ratio:
1. Cc1ccc(C2CC3CCC(C2C(=O)OCCCF)N3C)cc1 (configuration not stated)  45.3
2. COC(=O)C1C(c2ccc(C)cc2)CC2CCC1N2CCCF (configuration not stated)  34.9
3. COC(=O)C1C(c2ccc(C)cc2)CC2CCC1N2CCF (configuration not stated)  11.7
4. COC(=O)C1C(c2ccc(Br)cc2)CC2CCC1N2CCCF (configuration not stated)  10.9
5. O=C(OCCF)C1C(c2ccc(I)cc2)CC2CCC1N2CCCF (configuration not stated)  1.5
6. CN1C2CCC1C(C(=O)OCCCF)C(c1ccc(I)cc1)C2 (configuration not stated)  1.1
7. CN1C2CCC1C(C(=O)OCCF)C(c1ccc(I)cc1)C2 (configuration not stated)  1.1
8. COC(=O)[C@@H]1C2CC[C@H](C[C@@H]1c1ccc(I)cc1)N2C  0.4
9. COC(=O)C1C(c2ccc(I)cc2)CC2CCC1N2CCCF (configuration not stated)  0.2
10. COC(=O)C1C2CCC(CC1c1ccc(I)cc1)N2 (configuration not stated)  0.1
